Test: Drug delivery effect of the RED iontophoresis device through excised hairless mouse back skin (HPLC/LC-MS of stratum corneum and dermis)
Format: in vitro ADME
Conditions: after 3 hours, FIG. 10
Experimental: FIG. 10 is a graph illustrating drug delivery effects of the iontophoresis device according to an embodiment. In order to confirm the drug delivery effects, the RED battery unit was prepared in the same manner as in preparation of the RED battery unit prepared for the measurement in FIG. 6, except that the number of chamber layers was 15, and a size of the chamber was 1 cm×0.8 cm. Also, 3M clectrically conductible adhesive tape (ECAT), which is conductive fabric, was used as an intermediate unit. The first material containing unit was prepared as follows. 2.5 wt % of 2-phospho I-ascorbic acid trisodium (VCP) (available from Sigma Aldrich, US) and 3 w/v % of Carbopol 940 were dissolved in 1×PBS having pH of 7.4. By titrating with 1 M HCl and 1 M NaOH, a pH of the first material containing unit including vitamin C (VCP) was adjusted to 7. This is a stable pH at which VCP exists in the ionized form. As a thickening agent used in preparation of a dosage form, Carbopol was prepared as a sol while controlling a pH using pH indicator paper (available from GE healthcare, UK). The resultant was sufficiently stirred by using a glass rod so that a material in the first material containing unit was homogenous after each titration process. […]

## O=C1O[C@H]([C@@H](O)CO)C(O)=C1OP(=O)(O)O.[Na+].[Na+].[Na+] [VCP, 2-phospho I-ascorbic acid trisodium]
Control group (Ctrl): device with the same drug concentration, not activated by water, excised haireless mouse back skin
  drug remaining amount in the stratum corneum: more drug remaining amount was found in the stratum corneum
Experimental group (RED single): activated iontophoresis device, 15 chamber layers, 2.5 wt % VCP in Carbopol sol pH 7, excised haireless mouse (Sk-hr 1) back skin
  vitamin C (VCP) delivered to the skin, i.e., dermis: about 40%

Reference: patent US11571567B2, “Iontophoresis device for drug delivery and method for manufacturing the same” (BIOSENSOR LABORATORIES INC., priority 2016, dated 2023)
